# Experimental data: ChEMBL document CHEMBL5131459, “Semisynthesis and neurotrophic activity studies of novel neomajucin/majucin derivatives as neurotrophin small molecule mimetics” (Bioorg Med Chem Lett, 2022)
# The source made the active and inactive calls. The calls are words filed in the database; no cut-off is given here.
# Test system: PC-12
# Assay: Neuroprotective activity in […] cells assessed as induction of NGF-mediated neurite outgrowth by measuring differentiation rate of neurite-beating cells at 10 uM incubated for 72 hrs (reference value: 4.27 +/- 0.04 %)
# Assay type: functional, Rattus norvegicus
# Conditions: not given
row,Compound,Activity
1,COc1cc(CC(=O)O[C@]23C(=O)OC[C@@]2(C)[C@@]2(O)CC[C@@H](C)[C@]24C[C@H]3OC(=O)[C@@H]4O)cc(OC)c1OC,6.06%
2,C[C@@H]1C[C@@H](OC(=O)CCc2cccc(Cl)c2)[C@@]2(O)[C@@]13C[C@@H](OC(=O)[C@@H]3O)[C@@]1(O)C(=O)OC[C@@]21C,4.69%
3,C[C@@H]1CC[C@@]2(O)[C@@]13C[C@@H](OC(=O)[C@@H]3O)[C@@]1(OC(=O)CCc3ccccc3)C(=O)OC[C@@]21C,10.04%
4,C[C@@H]1CC[C@@]2(O)[C@@]13C[C@@H](OC(=O)[C@@H]3O)[C@@]1(OC(=O)Cc3cccc(Cl)c3)C(=O)OC[C@@]21C,5.53%
5,C[C@@H]1CC[C@@]2(O)[C@@]13C[C@@H](OC(=O)[C@@H]3O)[C@@]1(OC(=O)Cc3ccc(F)cc3)C(=O)OC[C@@]21C,5.85%
6,C[C@@H]1CC[C@@]2(O)[C@@]13C[C@@H](OC(=O)[C@@H]3O)[C@@]1(OC(=O)CCc3cccc(Br)c3)C(=O)OC[C@@]21C,5.04%
7,C[C@@H]1C[C@@H](OC(=O)CCC(=O)c2ccccc2)[C@@]2(O)[C@@]13C[C@@H](OC(=O)[C@@H]3O)[C@@]1(OC(=O)CCC(=O)c3ccccc3)C(=O)OC[C@@]21C,5.25%
8,C[C@@H]1CC[C@@]2(O)[C@@]13C[C@@H](OC(=O)[C@@H]3O)[C@@]1(OC(=O)Cc3ccc(Cl)cc3)C(=O)OC[C@@]21C,5.52%
9,C[C@@H]1CC[C@@]2(O)[C@@]13C[C@@H](OC(=O)[C@@H]3O)[C@@]1(OC(=O)CCC(=O)c3ccccc3)C(=O)OC[C@@]21C,8.79%
10,C[C@@H]1C[C@@H](OC(=O)CCc2cccc(F)c2)[C@@]2(O)[C@@]13C[C@@H](OC(=O)[C@@H]3O)[C@@]1(O)C(=O)OC[C@@]21C,5.78%
11,C[C@@H]1CC[C@@]2(O)[C@@]13C[C@@H](OC(=O)[C@@H]3O)[C@@]1(OC(=O)CCc3ccc(Cl)cc3)C(=O)OC[C@@]21C,6.05%
12,C[C@@H]1C[C@@H](OC(=O)CCC(=O)c2ccccc2)[C@@]2(O)[C@@]13C[C@@H](OC(=O)[C@@H]3O)[C@@]1(O)C(=O)OC[C@@]21C,6.42%
13,C[C@@H]1C[C@@H](OC(=O)CCc2ccccc2)[C@@]2(O)[C@@]13C[C@@H](OC(=O)[C@@H]3O)[C@@]1(O)C(=O)OC[C@@]21C,9.67%
14,C[C@@H]1CC[C@@]2(O)[C@@]13C[C@@H](OC(=O)[C@@H]3O)[C@@]1(OC(=O)Cc3cccc(Br)c3)C(=O)OC[C@@]21C,6.91%
15,C[C@@H]1CC[C@@]2(O)[C@@]13C[C@@H](OC(=O)[C@@H]3O)[C@@]1(OC(=O)/C=C/c3ccccc3)C(=O)OC[C@@]21C,5.38%
16,C[C@@H]1C[C@@H](OC(=O)CCc2ccc(Br)cc2)[C@@]2(O)[C@@]13C[C@@H](OC(=O)[C@@H]3O)[C@@]1(O)C(=O)OC[C@@]21C,10.02%
17,C[C@@H]1C[C@@H](OC(=O)CCc2ccc(Cl)cc2)[C@@]2(O)[C@@]13C[C@@H](OC(=O)[C@@H]3O)[C@@]1(O)C(=O)OC[C@@]21C,5.03%
18,C[C@@H]1C[C@@H](OC(=O)CCc2ccc(F)cc2)[C@@]2(O)[C@@]13C[C@@H](OC(=O)[C@@H]3O)[C@@]1(OC(=O)CCc3ccc(F)cc3)C(=O)OC[C@@]21C,9.41%
19,C[C@@H]1C[C@@H](OC(=O)CCc2ccc(Br)cc2)[C@@]2(O)[C@@]13C[C@@H](OC(=O)[C@@H]3O)[C@@]1(OC(=O)CCc3ccc(Br)cc3)C(=O)OC[C@@]21C,8.73%
20,C[C@@H]1CC[C@@]2(O)[C@@]13C[C@@H](OC(=O)[C@@H]3O)[C@@]1(OC(=O)CCc3cccc(Cl)c3)C(=O)OC[C@@]21C,4.88%
21,C[C@@H]1C[C@@H](OC(=O)CCc2ccc(F)cc2)[C@@]2(O)[C@@]13C[C@@H](OC(=O)[C@@H]3O)[C@@]1(O)C(=O)OC[C@@]21C,10.96%

row,Compound,Activity
1,C/C=C/C=C/C(=O)O[C@@H]1C[C@@H](C)[C@@]23C[C@@H](OC(=O)[C@@H]2O)[C@@]2(O)C(=O)OC[C@@]2(C)[C@@]13O,11.83%
2,C[C@@H]1CC[C@@]2(O)[C@@]13C[C@@H](OC(=O)[C@@H]3O)[C@@]1(OC(=O)CCc3ccc(Br)cc3)C(=O)OC[C@@]21C,6.85%
3,C[C@@H]1CC[C@@]2(O)[C@@]13C[C@@H](OC(=O)[C@@H]3O)[C@@]1(OC(=O)Cc3cccc(F)c3)C(=O)OC[C@@]21C,5.9%
4,C[C@@H]1CC[C@@]2(O)[C@@]13C[C@@H](OC(=O)[C@@H]3O)[C@@]1(OC(=O)Cc3ccc4ccccc4c3)C(=O)OC[C@@]21C,5.55%
5,COc1ccc(CC(=O)O[C@]23C(=O)OC[C@@]2(C)[C@@]2(O)CC[C@@H](C)[C@]24C[C@H]3OC(=O)[C@@H]4O)cc1,5.27%
6,C[C@@H]1C[C@@H](O)[C@@]2(O)[C@@]13C[C@@H](OC(=O)[C@@H]3O)[C@@]1(O)C(=O)OC[C@@]21C,6.25%
7,C[C@@H]1C[C@@H](OC(=O)CCc2cccc(Br)c2)[C@@]2(O)[C@@]13C[C@@H](OC(=O)[C@@H]3O)[C@@]1(OC(=O)CCc3cccc(Br)c3)C(=O)OC[C@@]21C,5.1%
8,C[C@@H]1C[C@@H](OC(=O)CCc2ccccc2)[C@@]2(O)[C@@]13C[C@@H](OC(=O)[C@@H]3O)[C@@]1(OC(=O)CCc3ccccc3)C(=O)OC[C@@]21C,5.47%
9,C[C@@H]1C[C@@H](OC(=O)CCc2cccc(F)c2)[C@@]2(O)[C@@]13C[C@@H](OC(=O)[C@@H]3O)[C@@]1(OC(=O)CCc3cccc(F)c3)C(=O)OC[C@@]21C,4.93%
10,C[C@@H]1CC[C@@]2(O)[C@@]13C[C@@H](OC(=O)[C@@H]3O)[C@@]1(OC(=O)CCCCBr)C(=O)OC[C@@]21C,5.28%
11,C[C@@H]1CC[C@@]2(O)[C@@]13C[C@@H](OC(=O)[C@@H]3O)[C@@]1(OC(=O)CCCBr)C(=O)OC[C@@]21C,6.04%
12,C[C@@H]1CC[C@@]2(O)[C@@]13C[C@@H](OC(=O)[C@@H]3O)[C@@]1(OC(=O)CCc3ccc(F)cc3)C(=O)OC[C@@]21C,8.99%
13,C[C@@H]1CC[C@@]2(O)[C@@]13C[C@@H](OC(=O)[C@@H]3O)[C@@]1(OC(=O)CCc3cccc(F)c3)C(=O)OC[C@@]21C,5.7%
14,C[C@@H]1C[C@@H](OC(=O)CCc2cccc(Br)c2)[C@@]2(O)[C@@]13C[C@@H](OC(=O)[C@@H]3O)[C@@]1(O)C(=O)OC[C@@]21C,5.56%
15,C[C@@H]1CC[C@@]2(O)[C@@]13C[C@@H](OC(=O)[C@@H]3O)[C@@]1(O)C(=O)OC[C@@]21C,8.76%
16,C[C@@H]1CC[C@@]2(O)[C@@]13C[C@@H](OC(=O)[C@@H]3O)[C@@]1(OC(=O)Cc3ccc(Br)cc3)C(=O)OC[C@@]21C,4.9%
17,C[C@@H]1C[C@@H](OC(=O)CCc2ccc(Cl)cc2)[C@@]2(O)[C@@]13C[C@@H](OC(=O)[C@@H]3O)[C@@]1(OC(=O)CCc3ccc(Cl)cc3)C(=O)OC[C@@]21C,5.21%
18,C[C@@H]1C[C@@H](OC(=O)CCc2cccc(Cl)c2)[C@@]2(O)[C@@]13C[C@@H](OC(=O)[C@@H]3O)[C@@]1(OC(=O)CCc3cccc(Cl)c3)C(=O)OC[C@@]21C,4.54%
19,C/C=C/C=C/C(=O)O[C@]12C(=O)OC[C@@]1(C)[C@@]1(O)CC[C@@H](C)[C@]13C[C@H]2OC(=O)[C@@H]3O,11.02%
20,C/C=C/C=C/C(=O)O[C@@H]1C[C@@H](C)[C@@]23C[C@@H](OC(=O)[C@@H]2O)[C@@]2(OC(=O)/C=C/C=C/C)C(=O)OC[C@@]2(C)[C@@]13O,5.13%

# Test system: PC-12
# Assay: Neuroprotective activity against MPP+-induced cell injury in […] cells assessed as cell survival rate at 20 uM (reference value: 68.60 +/- 1.06 %)
# Assay type: functional
# Conditions: Rattus norvegicus, read-out: Survival
row,Compound,viability at 20 µM
1,C/C=C/C=C/C(=O)O[C@@H]1C[C@@H](C)[C@@]23C[C@@H](OC(=O)[C@@H]2O)[C@@]2(O)C(=O)OC[C@@]2(C)[C@@]13O,68.5%
2,C/C=C/C=C/C(=O)O[C@]12C(=O)OC[C@@]1(C)[C@@]1(O)CC[C@@H](C)[C@]13C[C@H]2OC(=O)[C@@H]3O,72.5%

# Test system: PC-12
# Assay: Neuroprotective activity in […] cells assessed as induction of NGF-mediated neurite outgrowth by measuring protrusion length extension at 10 uM by methylene blue staining based light microscopic analysis
# Assay type: functional, cell-based
# Conditions: Rattus norvegicus
row,Compound,Activity
1,C[C@@H]1C[C@@H](OC(=O)CCc2ccc(F)cc2)[C@@]2(O)[C@@]13C[C@@H](OC(=O)[C@@H]3O)[C@@]1(O)C(=O)OC[C@@]21C,Active
2,C/C=C/C=C/C(=O)O[C@@H]1C[C@@H](C)[C@@]23C[C@@H](OC(=O)[C@@H]2O)[C@@]2(O)C(=O)OC[C@@]2(C)[C@@]13O,Active
3,C/C=C/C=C/C(=O)O[C@]12C(=O)OC[C@@]1(C)[C@@]1(O)CC[C@@H](C)[C@]13C[C@H]2OC(=O)[C@@H]3O,Active

# Test system: not listed separately
# Assay: Cytotoxicity against […] cells assessed as inhibition of cell growth by CCK-8 assay
# Assay type: toxicity, cell-based
# Conditions: rat
row,Compound,IC50
1,C/C=C/C=C/C(=O)O[C@@H]1C[C@@H](C)[C@@]23C[C@@H](OC(=O)[C@@H]2O)[C@@]2(O)C(=O)OC[C@@]2(C)[C@@]13O,> 512 mg/L
2,C/C=C/C=C/C(=O)O[C@]12C(=O)OC[C@@]1(C)[C@@]1(O)CC[C@@H](C)[C@]13C[C@H]2OC(=O)[C@@H]3O,> 512 mg/L
